# Assay results: article PMC7366380, “Discovery of a Potent and Selective Covalent Inhibitor and Activity-Based Probe for the Deubiquitylating Enzyme UCHL1, with Antifibrotic Activity” (Journal of the American Chemical Society, 2020)
# Values joined by “and” are separate entries in the source; they are usually repeats but may differ in a detail not shown here. Equal entries are not always repeated.
# What was measured:
# Assay in all cases: In-cell proteome-wide competitive ABPP, HEK293: other DUBs and proteins
# [1] = biological target: DUBs and other proteins in HEK293 cells (Homo sapiens, UniProt Q7L5N1); conditions: for Log2 reporter intensity values, COPS6: TMT replicates; for Log2 reporter intensity values / Log2 reporter intensity values: COPS6: replicates A-C; for Log2 reporter intensity values: COPS6: competition with ABP 2, DMSO substract (FC)
# [2] = biological target: T1, DUBs and other proteins in HEK293 cells (Homo sapiens, UniProt P45974); conditions: replicates A-C; for Log2 reporter intensity values: USP5: competition with ABP 2, DMSO substract (FC); for Log2 reporter intensity values: USP5, DMSO subtracted
# T1 sequence (P45974 1-858): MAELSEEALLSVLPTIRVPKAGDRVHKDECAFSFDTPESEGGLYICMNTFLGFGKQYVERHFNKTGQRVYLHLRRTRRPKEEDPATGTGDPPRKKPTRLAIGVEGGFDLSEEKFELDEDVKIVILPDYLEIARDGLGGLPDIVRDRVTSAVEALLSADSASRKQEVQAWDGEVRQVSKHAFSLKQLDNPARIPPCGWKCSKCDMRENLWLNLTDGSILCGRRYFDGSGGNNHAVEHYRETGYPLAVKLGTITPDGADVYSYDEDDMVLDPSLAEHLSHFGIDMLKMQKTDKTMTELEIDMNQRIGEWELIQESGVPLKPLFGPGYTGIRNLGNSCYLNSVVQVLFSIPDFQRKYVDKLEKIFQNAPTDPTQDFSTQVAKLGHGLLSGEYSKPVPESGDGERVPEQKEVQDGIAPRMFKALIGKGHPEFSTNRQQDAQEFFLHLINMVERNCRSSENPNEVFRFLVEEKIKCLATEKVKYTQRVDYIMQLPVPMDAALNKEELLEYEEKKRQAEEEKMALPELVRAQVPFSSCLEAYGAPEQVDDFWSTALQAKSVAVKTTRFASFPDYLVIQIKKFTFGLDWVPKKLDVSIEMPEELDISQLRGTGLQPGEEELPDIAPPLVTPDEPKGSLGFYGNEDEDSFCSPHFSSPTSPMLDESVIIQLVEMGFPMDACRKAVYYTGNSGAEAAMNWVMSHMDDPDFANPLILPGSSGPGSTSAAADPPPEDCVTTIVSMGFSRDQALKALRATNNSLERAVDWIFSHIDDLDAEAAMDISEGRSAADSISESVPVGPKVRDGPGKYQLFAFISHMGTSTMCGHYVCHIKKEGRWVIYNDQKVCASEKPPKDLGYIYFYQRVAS
# [3] = biological target: DUBs and other proteins in HEK293 cells (Homo sapiens, UniProt Q9Y5T5); conditions: replicates A-C; for Log2 reporter intensity values: USP16: competition with ABP 2, DMSO substract (FC); for Log2 reporter intensity values: USP16, DMSO subtracted
# [4] = biological target: DUBs and other proteins in HEK293 cells (Homo sapiens, UniProt Q14694); conditions: replicates A-C; for Log2 reporter intensity values: USP10: competition with ABP 2, DMSO substract (FC); for Log2 reporter intensity values: USP10, DMSO subtracted
# [5] = biological target: DUBs and other proteins in HEK293 cells (Homo sapiens, UniProt O00303); conditions: for Log2 reporter intensity values, EIF3F: TMT replicates; for Log2 reporter intensity values / Log2 reporter intensity values: EIF3F: replicates A-C; for Log2 reporter intensity values: EIF3F: competition with ABP 2, DMSO substract (FC)
# [6] = biological target: DUBs and other proteins in HEK293 cells (Homo sapiens, UniProt P51784); conditions: replicates A-C; for Log2 reporter intensity values: USP11: competition with ABP 2, DMSO substract (FC); for Log2 reporter intensity values: USP11, DMSO subtracted
# [7] = biological target: T2, DUBs and other proteins in HEK293 cells (Homo sapiens, UniProt Q53GS9); conditions: replicates A-C; for Log2 reporter intensity values: USP39: competition with ABP 2, DMSO substract (FC); for Log2 reporter intensity values: USP39, DMSO subtracted
# T2 sequence (Q53GS9 1-565): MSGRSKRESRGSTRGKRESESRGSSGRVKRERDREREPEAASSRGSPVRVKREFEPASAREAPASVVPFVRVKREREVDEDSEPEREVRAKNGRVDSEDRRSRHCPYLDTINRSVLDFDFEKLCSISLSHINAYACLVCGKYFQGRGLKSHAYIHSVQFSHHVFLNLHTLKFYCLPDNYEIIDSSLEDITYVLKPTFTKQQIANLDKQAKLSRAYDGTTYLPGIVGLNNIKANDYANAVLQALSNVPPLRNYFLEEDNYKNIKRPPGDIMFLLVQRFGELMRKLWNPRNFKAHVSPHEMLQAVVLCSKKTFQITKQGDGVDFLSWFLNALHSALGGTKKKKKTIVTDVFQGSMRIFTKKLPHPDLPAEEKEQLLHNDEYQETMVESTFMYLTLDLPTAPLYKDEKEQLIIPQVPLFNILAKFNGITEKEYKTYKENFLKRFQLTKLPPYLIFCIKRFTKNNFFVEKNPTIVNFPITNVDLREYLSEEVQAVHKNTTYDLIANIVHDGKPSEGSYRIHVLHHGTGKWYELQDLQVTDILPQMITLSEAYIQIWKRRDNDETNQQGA
# [8] = 5 μM LDN-57444 (60 min) + 20 nM ABP 2 (10 min), All values
# [9] = 5 μM LDN-57444 (60 min) + 20 nM ABP 2 (10 min), DMSO subtracted
# [10] = 25 μM LDN-57444 (60 min) + 20 nM ABP 2 (10 min), All values
# [11] = 25 μM LDN-57444 (60 min) + 20 nM ABP 2 (10 min), DMSO subtracted
# Sequence of DUBs and other proteins in HEK293 cells (Homo sapiens, UniProt Q14694) (Q14694 whole entry): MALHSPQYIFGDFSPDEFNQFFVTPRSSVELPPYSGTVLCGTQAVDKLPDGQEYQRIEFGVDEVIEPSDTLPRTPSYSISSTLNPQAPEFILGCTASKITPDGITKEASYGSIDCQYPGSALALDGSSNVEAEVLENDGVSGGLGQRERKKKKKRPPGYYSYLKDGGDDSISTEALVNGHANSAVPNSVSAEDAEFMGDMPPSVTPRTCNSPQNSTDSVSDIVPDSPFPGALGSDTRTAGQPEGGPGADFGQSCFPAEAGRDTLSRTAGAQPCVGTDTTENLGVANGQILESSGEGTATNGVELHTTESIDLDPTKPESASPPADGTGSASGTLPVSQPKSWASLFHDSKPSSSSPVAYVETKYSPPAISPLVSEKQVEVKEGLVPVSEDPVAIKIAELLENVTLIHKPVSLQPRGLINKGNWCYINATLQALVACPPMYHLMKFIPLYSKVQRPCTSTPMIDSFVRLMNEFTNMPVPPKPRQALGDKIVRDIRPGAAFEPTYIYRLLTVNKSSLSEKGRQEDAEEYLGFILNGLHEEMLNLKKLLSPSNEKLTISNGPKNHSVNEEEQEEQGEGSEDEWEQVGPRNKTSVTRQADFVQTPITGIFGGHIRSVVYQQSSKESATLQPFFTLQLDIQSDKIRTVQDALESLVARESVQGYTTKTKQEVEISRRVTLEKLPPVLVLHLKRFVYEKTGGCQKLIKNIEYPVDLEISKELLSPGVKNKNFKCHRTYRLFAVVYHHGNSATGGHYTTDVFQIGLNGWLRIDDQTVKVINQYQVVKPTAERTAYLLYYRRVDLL
# Sequence of DUBs and other proteins in HEK293 cells (Homo sapiens, UniProt O00303) (O00303 whole entry): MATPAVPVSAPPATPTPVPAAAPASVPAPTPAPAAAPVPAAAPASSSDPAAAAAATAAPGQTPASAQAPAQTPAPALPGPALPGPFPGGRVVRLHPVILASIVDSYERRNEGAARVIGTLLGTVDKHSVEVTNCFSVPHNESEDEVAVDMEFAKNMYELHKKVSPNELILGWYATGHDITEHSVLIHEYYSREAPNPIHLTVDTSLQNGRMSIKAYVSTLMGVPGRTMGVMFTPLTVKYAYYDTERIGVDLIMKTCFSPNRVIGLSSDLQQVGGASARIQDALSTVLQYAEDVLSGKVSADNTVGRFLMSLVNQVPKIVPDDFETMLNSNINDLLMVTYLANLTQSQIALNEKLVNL
# Sequence of DUBs and other proteins in HEK293 cells (Homo sapiens, UniProt Q9Y5T5) (Q9Y5T5 whole entry): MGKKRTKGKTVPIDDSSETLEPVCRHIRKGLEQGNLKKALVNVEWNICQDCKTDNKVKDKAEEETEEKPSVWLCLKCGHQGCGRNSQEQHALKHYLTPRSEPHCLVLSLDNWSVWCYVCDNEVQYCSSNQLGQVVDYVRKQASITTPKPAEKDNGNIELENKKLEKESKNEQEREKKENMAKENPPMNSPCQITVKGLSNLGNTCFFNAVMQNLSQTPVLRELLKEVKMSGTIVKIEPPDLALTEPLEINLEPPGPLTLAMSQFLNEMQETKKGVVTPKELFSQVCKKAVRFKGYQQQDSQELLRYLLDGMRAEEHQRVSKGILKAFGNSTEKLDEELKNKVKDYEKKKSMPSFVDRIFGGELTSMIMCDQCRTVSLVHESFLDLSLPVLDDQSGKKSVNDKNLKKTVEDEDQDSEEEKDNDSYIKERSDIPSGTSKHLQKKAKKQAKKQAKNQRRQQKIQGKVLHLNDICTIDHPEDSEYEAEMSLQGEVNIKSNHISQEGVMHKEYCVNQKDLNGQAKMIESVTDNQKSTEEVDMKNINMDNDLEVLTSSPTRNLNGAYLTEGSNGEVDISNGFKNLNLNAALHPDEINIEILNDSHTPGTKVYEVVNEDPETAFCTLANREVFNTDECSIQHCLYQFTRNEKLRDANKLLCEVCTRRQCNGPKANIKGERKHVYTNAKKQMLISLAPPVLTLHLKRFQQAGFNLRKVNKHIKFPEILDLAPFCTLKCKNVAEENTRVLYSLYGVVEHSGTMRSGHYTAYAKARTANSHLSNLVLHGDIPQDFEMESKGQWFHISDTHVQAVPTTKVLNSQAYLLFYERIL
# Sequence of DUBs and other proteins in HEK293 cells (Homo sapiens, UniProt P51784) (P51784 whole entry): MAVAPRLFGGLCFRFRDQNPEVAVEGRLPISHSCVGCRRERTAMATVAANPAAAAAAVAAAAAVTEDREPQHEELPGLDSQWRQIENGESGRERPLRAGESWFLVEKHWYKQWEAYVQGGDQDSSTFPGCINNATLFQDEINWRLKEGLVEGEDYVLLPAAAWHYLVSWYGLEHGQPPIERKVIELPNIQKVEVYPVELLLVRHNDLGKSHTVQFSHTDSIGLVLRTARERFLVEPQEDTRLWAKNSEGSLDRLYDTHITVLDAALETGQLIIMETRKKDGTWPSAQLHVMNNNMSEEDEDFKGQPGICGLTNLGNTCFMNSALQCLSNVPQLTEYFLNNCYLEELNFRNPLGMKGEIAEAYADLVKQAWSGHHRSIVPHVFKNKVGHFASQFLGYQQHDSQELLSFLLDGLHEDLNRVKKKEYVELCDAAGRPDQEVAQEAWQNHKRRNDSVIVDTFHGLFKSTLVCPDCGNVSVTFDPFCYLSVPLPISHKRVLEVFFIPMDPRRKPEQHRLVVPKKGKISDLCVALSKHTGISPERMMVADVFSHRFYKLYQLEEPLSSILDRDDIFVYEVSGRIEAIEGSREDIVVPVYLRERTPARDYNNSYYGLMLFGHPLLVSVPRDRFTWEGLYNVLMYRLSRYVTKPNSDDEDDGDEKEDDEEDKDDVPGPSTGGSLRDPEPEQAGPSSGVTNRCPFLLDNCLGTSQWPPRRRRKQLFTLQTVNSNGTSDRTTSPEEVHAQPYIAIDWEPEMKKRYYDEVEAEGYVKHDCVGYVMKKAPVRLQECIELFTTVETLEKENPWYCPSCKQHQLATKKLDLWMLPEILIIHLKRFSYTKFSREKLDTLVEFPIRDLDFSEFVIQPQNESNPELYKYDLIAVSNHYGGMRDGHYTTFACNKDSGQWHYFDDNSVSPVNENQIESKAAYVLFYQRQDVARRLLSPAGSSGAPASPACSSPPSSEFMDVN
# Sequence of DUBs and other proteins in HEK293 cells (Homo sapiens, UniProt Q7L5N1) (Q7L5N1 whole entry): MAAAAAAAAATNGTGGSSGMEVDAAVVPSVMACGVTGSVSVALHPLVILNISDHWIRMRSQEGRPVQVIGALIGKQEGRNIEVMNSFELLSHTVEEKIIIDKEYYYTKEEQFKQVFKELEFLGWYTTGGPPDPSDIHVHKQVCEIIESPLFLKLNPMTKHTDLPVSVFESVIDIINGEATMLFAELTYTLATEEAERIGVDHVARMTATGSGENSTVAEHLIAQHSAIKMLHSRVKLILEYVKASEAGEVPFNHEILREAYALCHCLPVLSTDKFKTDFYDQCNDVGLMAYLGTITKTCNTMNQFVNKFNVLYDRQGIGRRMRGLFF
structure (smiles),measurement,setting,value
CC(=O)O/N=C1\C(=O)N(Cc2cc(Cl)ccc2Cl)c2ccc(Cl)cc21 [LDN],"Log2 reporter intensity values, COPS6",[1]; [8],0.1306 and 0.0287 and 0.0623
same,"Log2 reporter intensity values, COPS6",[1]; [9],0.1181 and 0.01629 and 0.04989
same,"Log2 reporter intensity values, COPS6",[1]; [10],-0.04892 and -0.02797 and -0.1172
same,"Log2 reporter intensity values, COPS6",[1]; [11],-0.06133 and -0.04038 and -0.1296
same,Log2 t-test Difference,"[1]; COPS6, LDN - 5 μM",0.0178
same,Log2 reporter intensity values,"[1]; COPS6, LDN at 5 μM, DMSO subtracted",0.1181 and 0.01629 and 0.04989
same,Log2 reporter intensity values,"[1]; COPS6, LDN at 25 μM, DMSO subtracted",-0.06133 and -0.04038 and -0.1296
same,Log2 reporter intensity values,"[1]; COPS6, LDN_5 μM, DMSO subtracted",0.08523 and 0.01124 and 0.03507
same,Log2 reporter intensity values,"[1]; COPS6, LDN_25 μM, DMSO subtracted",-0.04173 and -0.02772 and -0.08603
same,Log2 reporter intensity values: COPS6,[1]; LDN at 5 μM,1.085 and 1.011 and 1.035
same,Log2 reporter intensity values: COPS6,[1]; LDN at 25 μM,0.9584 and 0.9724 and 0.9141
same,Log2 reporter intensity values: USP5,[2]; LDN at 5 μM,1.037 and 0.9788 and 0.9532
same,Log2 reporter intensity values: USP5,[2]; LDN at 25 μM,1.021 and 0.9648 and 0.9864
same,Log2 reporter intensity values,[2]; LDN at 5 μM,0.05306 and -0.03094 and -0.06922
same,Log2 reporter intensity values,[2]; LDN at 25 μM,0.02936 and -0.0517 and -0.01971
same,Log2 reporter intensity values,[2]; LDN_5 μM,0.03714 and -0.02154 and -0.04717
same,Log2 reporter intensity values,[2]; LDN_25 μM,0.02024 and -0.03553 and -0.01389
same,Log2 reporter intensity values: USP16,[3]; LDN at 5 μM,1.149 and 1.181 and 1.095
same,Log2 reporter intensity values: USP16,[3]; LDN at 25 μM,1.216 and 1.053 and 1.129
same,Log2 reporter intensity values,[3]; LDN at 5 μM,0.2004 and 0.2395 and 0.1308
same,Log2 reporter intensity values,[3]; LDN at 25 μM,0.2823 and 0.07456 and 0.1753
same,Log2 reporter intensity values,[3]; LDN_5 μM,0.1468 and 0.1784 and 0.09274
same,Log2 reporter intensity values,[3]; LDN_25 μM,0.2139 and 0.05085 and 0.127
same,Log2 reporter intensity values: USP10,[4]; LDN at 5 μM,0.9581 and 0.8382 and 0.9082
same,Log2 reporter intensity values: USP10,[4]; LDN at 25 μM,0.9726 and 0.903 and 0.8841
same,Log2 reporter intensity values,[4]; LDN at 5 μM,-0.06168 and -0.2546 and -0.1389
same,Log2 reporter intensity values,[4]; LDN at 25 μM,-0.04009 and -0.1472 and -0.1778
same,Log2 reporter intensity values,[4]; LDN_5 μM,-0.04282 and -0.1627 and -0.09278
same,Log2 reporter intensity values,[4]; LDN_25 μM,-0.02837 and -0.09796 and -0.1169
same,"Log2 reporter intensity values, EIF3F",[5]; [8],0.1312 and 0.08738 and -0.0291
same,"Log2 reporter intensity values, EIF3F",[5]; [9],0.1407 and 0.09693 and -0.01955
same,"Log2 reporter intensity values, EIF3F",[5]; [10],0.03265 and -0.09761 and -0.112
same,"Log2 reporter intensity values, EIF3F",[5]; [11],0.0422 and -0.08806 and -0.1024
same,Log2 t-test Difference,"[5]; EIF3F, LDN - 5 μM",-0.01801
same,Log2 reporter intensity values,"[5]; EIF3F, LDN at 5 μM, DMSO subtracted",0.1407 and 0.09693 and -0.01955
same,Log2 reporter intensity values,"[5]; EIF3F, LDN at 25 μM, DMSO subtracted",0.0422 and -0.08806 and -0.1024
same,Log2 reporter intensity values,"[5]; EIF3F, LDN_5 μM, DMSO subtracted",0.102 and 0.06908 and -0.01388
same,Log2 reporter intensity values,"[5]; EIF3F, LDN_25 μM, DMSO subtracted",0.02927 and -0.05963 and -0.06897
same,Log2 reporter intensity values: EIF3F,[5]; LDN at 5 μM,1.102 and 1.069 and 0.9865
same,Log2 reporter intensity values: EIF3F,[5]; LDN at 25 μM,1.03 and 0.9408 and 0.9315
same,Log2 reporter intensity values: USP11,[6]; LDN at 5 μM,1.03 and 1.059 and 1.019
same,Log2 reporter intensity values: USP11,[6]; LDN at 25 μM,1.058 and 0.9885 and 1.048
same,Log2 reporter intensity values,[6]; LDN at 5 μM,0.04194 and 0.08295 and 0.02661
same,Log2 reporter intensity values,[6]; LDN at 25 μM,0.082 and -0.01664 and 0.06827
same,Log2 reporter intensity values,[6]; LDN_5 μM,0.02916 and 0.05885 and 0.01828
same,Log2 reporter intensity values,[6]; LDN_25 μM,0.05815 and -0.0118 and 0.04812
same,Log2 reporter intensity values: USP39,[7]; LDN at 5 μM,1.029 and 1.043 and 0.9785
same,Log2 reporter intensity values: USP39,[7]; LDN at 25 μM,1.07 and 1.069 and 1.033
same,Log2 reporter intensity values,[7]; LDN at 5 μM,0.04123 and 0.06024 and -0.03137
same,Log2 reporter intensity values,[7]; LDN at 25 μM,0.09762 and 0.09571 and 0.04713
same,Log2 reporter intensity values,[7]; LDN_5 μM,0.02838 and 0.04203 and -0.02212
same,Log2 reporter intensity values,[7]; LDN_25 μM,0.0694 and 0.06798 and 0.0326
